Measurements from patent US11208411B2, “Compositions and methods for treating parasitic diseases” (THE REGENTS OF THE UNIVERSITY OF CALIFORNIA, priority 2016, dated 2021).
Where two headings read alike, the source gives them in different places.

How the values were obtained:
TgCDPK1 = TgCDPK1 (Toxoplasma gondii, UniProt Q9BJF5); experiment: TgCDPK1 kinase assay, syntide-2 peptide-based ELISA; format: biochemical
[1] = tested on: T. gondii type I RH strain, 2F clone; experiment: Inhibition of parasite growth in vitro in HFF monolayers (beta-Gal readout); format: cell-based
[2] = Stability in rat liver microsomes; format: in vitro ADME; conditions: 1 mM NADPH, read-out: Microsome Half-Life
Src = Src (Homo sapiens (Human), UniProt P12931); experiment: Src kinase inhibition; format: biochemical; set-up: Src % Inhibition: concentration or dose not given beside the values
Src, sequence (P12931 whole entry, looked up): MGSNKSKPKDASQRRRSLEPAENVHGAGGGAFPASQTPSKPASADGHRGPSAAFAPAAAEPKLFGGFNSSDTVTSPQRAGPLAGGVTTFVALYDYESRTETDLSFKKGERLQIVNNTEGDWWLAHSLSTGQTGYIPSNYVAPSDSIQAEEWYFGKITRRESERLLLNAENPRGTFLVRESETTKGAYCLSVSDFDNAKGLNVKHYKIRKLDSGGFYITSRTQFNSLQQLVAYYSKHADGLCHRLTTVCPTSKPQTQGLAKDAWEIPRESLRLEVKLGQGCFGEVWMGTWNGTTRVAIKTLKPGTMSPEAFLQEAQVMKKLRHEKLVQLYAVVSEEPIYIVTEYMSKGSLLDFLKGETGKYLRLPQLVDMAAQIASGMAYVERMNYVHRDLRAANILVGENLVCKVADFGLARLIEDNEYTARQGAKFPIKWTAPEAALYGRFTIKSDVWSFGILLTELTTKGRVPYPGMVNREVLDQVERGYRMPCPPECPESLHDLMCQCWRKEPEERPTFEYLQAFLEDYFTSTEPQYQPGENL

In vivo pharmacokinetics = conditions: iv, 3 mg/kg
[3] = Toxoplasma gondii, 72 h; read-out: Parasite Growth EC50

TgCDPK1, sequence (Q9BJF5 1-507): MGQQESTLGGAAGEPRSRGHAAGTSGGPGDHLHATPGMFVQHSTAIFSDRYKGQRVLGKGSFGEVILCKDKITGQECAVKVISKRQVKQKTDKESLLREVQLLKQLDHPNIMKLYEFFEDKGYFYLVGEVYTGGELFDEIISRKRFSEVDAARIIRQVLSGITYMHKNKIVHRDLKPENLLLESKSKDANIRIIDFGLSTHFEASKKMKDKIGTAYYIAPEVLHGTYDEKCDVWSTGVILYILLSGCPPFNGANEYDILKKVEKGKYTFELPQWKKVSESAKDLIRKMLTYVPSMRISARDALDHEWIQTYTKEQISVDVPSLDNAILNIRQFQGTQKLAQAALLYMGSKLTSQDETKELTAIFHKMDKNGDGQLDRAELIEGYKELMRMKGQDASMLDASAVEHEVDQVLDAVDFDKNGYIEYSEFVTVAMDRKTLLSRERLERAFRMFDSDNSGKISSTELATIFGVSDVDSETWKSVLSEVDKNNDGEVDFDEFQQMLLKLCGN

Row | SMILES | Src % Inhibition (Src) | other results
1 | CC(C)(C)n1nc(Cc2csc3ccccc23)c2c(N)ncnc21 [CZ43, 3-(benzo[b]thiophen-3-ylmethyl)-1-(tert-butyl)-1H-pyrazolo[3,4-d]pyrimidin-4-amine] | 28.21% | IC50 (TgCDPK1): 7.45 nM; EC50 [1, 3]: 135 nM; half-life [2]: 2.5 min; IC50 (Src): 14 nM
2 | CC(C)(C)n1nc(Cc2cc(F)cc(F)c2)c2c(N)ncnc21 [CZ75, 1-(tert-butyl)-3-(3,5-difluorobenzyl)-1H-pyrazolo[3,4-d]pyrimidin-4-amine] | 91.31% | 
3 | CC(C)(C)n1nc(Cc2cccc(Cl)c2)c2c(N)ncnc21 [Compound 3CIB-PP1, 1-(tert-butyl)-3-(3-chlorobenzyl)-1H-pyrazolo[3,4-d]pyrimidin-4-amine, reference compound] | 18.48% | 
4 | Nc1ncnc2c1c(Oc1cccc(Cl)c1)nn2Cc1ccncc1 [FUR6-6, 3-(3-chlorophenoxy)-1-(pyridin-4-ylmethyl)-1H-pyrazolo[3,4-d]pyrimidin-4-amine] | 93.91% | 
5 | Nc1ncnc2c1c(Oc1cccc(Cl)c1)nn2CC1CCCNC1 (stereo not shown) [FUR6-11, 3-(3-chlorophenoxy)-1-(piperidin-3-ylmethyl)-1H-pyrazolo[3,4-d]pyrimidin-4-amine] | 90.05% | 
6 | Nc1ncnc2c1c(Oc1cccc(Cl)c1)nn2CC1CNC1 [FUR6-12, 1-(azetidin-3-ylmethyl)-3-(3-chlorophenoxy)-1H-pyrazolo[3,4-d]pyrimidin-4-amine] | 91.81% | 
7 | Nc1ncnc2c1c(Oc1cccc(Cl)c1)nn2CC1CCNC1 (stereo not shown) [FUR6-13, 3-(3-chlorophenoxy)-1-(pyrrolidin-3-ylmethyl)-H-pyrazolo[3,4-d]pyrimidin-4-amine] | 99.50% | 
8 | Nc1ncnc2c1c(Cc1c[nH]c3ccccc13)nn2CC1CCNCC1 [FUR6-95, 3-((1H-indol-3-yl)methyl)-1-(piperidin-4-ylmethyl)-1H-pyrazolo[3,4-d]pyrimidin-4-amine] | 92.70% | IC50 (TgCDPK1): 23.9 nM; EC50 [1, 3]: > 10000 nM; half-life [2]: > 60 min; IC50 (Src): > 10000 nM
9 | Nc1ncnc2c1c(Cc1cccc(Cl)c1)nn2CC1CCNCC1 [FUR6-157, 3-(3-chlorobenzyl)-1-(piperidin-4-ylmethyl)-1H-pyrazolo[3,4-d]pyrimidin-4-amine] | 87.11% | 
10 | CC(C)(C)n1nc(Sc2c[nH]c3ccccc23)c2c(N)ncnc21 [FUR6-159, 3-((1H-indol-3-yl)thio)-1-(tert-butyl)-1H-pyrazolo[3,4-d]pyrimidin-4-amine] | 97.66% | IC50 (TgCDPK1): 202 nM; EC50 [1, 3]: > 10000 nM; half-life [2]: 2.6 min; IC50 (Src): > 10000 nM
11 | Nc1ncnc2c1c(Oc1cccc(Cl)c1)nn2CC1(C(F)(F)F)CC1 [FUR7-2, 3-(3-chlorophenoxy)-1-((1-(trifluoromethyl)cyclopropyl)methyl)-1H-pyrazolo[3,4-d]pyrimidin-4-amine] | 91.63% | 
12 | Nc1ncnc2c1c(Oc1cccc(Cl)c1)nn2CC1CCNCC1(F)F (stereo not shown) [FUR7-27, 3-(3-chlorophenoxy)-1-((3,3-difluoropiperidin-4-yl)methyl)-1H-pyrazolo[3,4-d]pyrimidin-4-amine] | 87.87% | 
13 | CN1CCC(Cn2nc(Oc3cccc(Cl)c3)c3c(N)ncnc32)CC1 [FUR7-30, 3-(3-chlorophenoxy)-1-((1-methylpiperidin-4-yl)methyl)-1H-pyrazolo[3,4-d]pyrimidin-4-amine] | 96.94% | 
14 | Nc1ncnc2c1c(Oc1cccc(Cl)c1)nn2CC1CCNC(=O)C1 (stereo not shown) [FUR7-36, 4-((4-amino-3-(3-chlorophenoxy)-1H-pyrazolo[3,4-d]pyrimidin-1-yl)methyl)piperidin-2-one] | 96.13% | 
15 | Cc1cccc(Sc2nn(C(C)(C)C)c3ncnc(N)c23)c1 [FUR7-68, 1-(tert-butyl)-3-(m-tolylthio)-1H-pyrazolo[3,4-d]pyrimidin-4-amine] | 64.39% | IC50 (TgCDPK1): 22.9 nM; EC50 [1, 3]: 376 nM; half-life [2]: 1 min; IC50 (Src): > 10000 nM
16 | Cc1cccc(Sc2nn(CC3CCNCC3)c3ncnc(N)c23)c1 [FUR7-77, 1-(piperidin-4-ylmethyl)-3-(m-tolylthio)-1H-pyrazolo[3,4-d]pyrimidin-4-amine] | 80.21% | 
17 | Nc1ncnc2c1c(Oc1cccc(Cl)c1)nn2CC1CCOCC1 [FUR7-89, 3-(3-chlorophenoxy)-1-((tetrahydro-2H-pyran-4-yl)methyl)-1H-pyrazolo[3,4-d]pyrimidin-4-amine] | 77.33% | 
18 | Nc1ncnc2c1c(Sc1cccc(Cl)c1)nn2CC1CCNCC1 [FUR 5-56] | 102.82% | 

Row | SMILES | Src % Inhibition (Src) | other results
19 | Nc1ncnc2c1c(Sc1c[nH]c3ccccc13)nn2CC1CCNCC1 [FUR 5-57, 3-((1H-indol-3-yl)thio)-1-(piperidin-4-ylmethyl)-1H-pyrazolo[3,4-d]pyrimidin-4-amine] |  | half-life [2]: 12 min
20 | Nc1ncnc2c1c(Sc1cccc(Cl)c1)cn2CC1CCNCC1 [FUR 6-139, 5-((3-chlorophenyl)thio)-7-(piperidin-4-ylmethyl)-7H-pyrrolo[2,3-d]pyrimidin-4-amine] | 97.49% | 
21 | Nc1ncnc2c1c(Sc1cccc(Cl)c1)nn2CC1CCNCC1(F)F (stereo not shown) [FUR 7-76] | 76.47% | 
22 | Cc1cccc(Oc2nn(C(C)(C)C)c3ncnc(N)c23)c1 [GXJ176, 1-(tert-butyl)-3-(m-tolyloxy)-1H-pyrazolo[3,4-d]pyrimidin-4-amine] | 84.24% | 
23 | CC(C)(C)n1nc(Oc2cccc(Br)c2)c2c(N)ncnc21 [GXJ177, 3-(3-bromophenoxy)-1-(tert-butyl)-1H-pyrazolo[3,4-d]pyrimidin-4-amine] | 73.35% | 
24 | CC(C)(C)n1nc(Oc2cccc(C(F)(F)F)c2)c2c(N)ncnc21 [GXJ178, 1-(tert-butyl)-3-(3-(trifluoromethyl)phenoxy)-1H-pyrazolo[3,4-d]pyrimidin-4-amine] | 79.53% | 
25 | CC(C)(C)n1nc(Oc2cccc(Cl)c2)c2c(N)ncnc21 [GXJ184, 1-(tert-butyl)-3-(3-chlorophenoxy)-1H-pyrazolo[3,4-d]pyrimidin-4-amine] | 79.94% | Co (initial conc.) (In vivo pharmacokinetics): 5471.09 ng/mL
26 | CC(C)(C)n1nc(Sc2cccc(Cl)c2)c2c(N)ncnc21 [GXJ186, 1-(tert-butyl)-3-((3-chlorophenyl)thio)-1H-pyrazolo[3,4-d]pyrimidin-4-amine] | 72.84% | 
27 | CC(C)(C)n1nc(Oc2cc(F)cc(F)c2)c2c(N)ncnc21 [GXJ229, 1-(tert-butyl)-3-(3,5-difluorophenoxy)-1H-pyrazolo[3,4-d]pyrimidin-4-amine] | 87.48% | 
28 | COc1cccc(Oc2nn(C(C)(C)C)c3ncnc(N)c23)c1 [GXJ230, 1-(tert-butyl)-3-(3-methoxyphenoxy)-1H-pyrazolo[3,4-d]pyrimidin-4-amine] | 77.53% | 
29 | Nc1ncnc2c1c(Oc1cccc(Cl)c1)nn2CC1CCNCC1 [GXJ237, 3-(3-chlorophenoxy)-1-(piperidin-4-ylmethyl)-1H-pyrazolo[3,4-d]pyrimidin-4-amine] | 87.87% | 
30 | Nc1ncnc2c1c(Oc1ccc(F)c(Cl)c1)nn2CC1CCNCC1 [GXJ261, 3-(3-chloro-4-fluorophenoxy)-1-(piperidin-4-ylmethyl)-1H-pyrazolo[3,4-d]pyrimidin-4-amine] | 78.16% | 
31 | Nc1ncnc2c1c(Nc1cccc(Cl)c1)nn2CC1CCNCC1 [GXJ276, N^3-(3-chlorophenyl)-1-(piperidin-4-ylmethyl)-1H-pyrazolo[3,4-d]pyrimidine-3,4-diamine] | 24.50% | 
32 | CC(C)(C)n1nc(Cc2c[nH]c3ccccc23)c2c(N)ncnc21 [LJQ-138, 3-((1H-indol-3-yl)methyl)-1-(tert-butyl)-1H-pyrazolo[3,4-d]pyrimidin-4-amine] | 74.94% | IC50 (TgCDPK1): 12.3 nM; EC50 [1, 3]: 177 nM; half-life [2]: 2 min; IC50 (Src): > 10000 nM
33 | CC(C)(C)n1nc(Cc2coc3ccccc23)c2c(N)ncnc21 [LJQ-145, 3-(benzofuran-3-ylmethyl)-1-(tert-butyl)-1H-pyrazolo[3,4-d]pyrimidin-4-amine] | 36.04% | IC50 (TgCDPK1): 23.7 nM; EC50 [1, 3]: 2030 nM; half-life [2]: 1.7 min
34 | CC(C)(C)n1nc(Nc2cccc(Cl)c2)c2c(N)ncnc21 [LZH118, 1-(tert-butyl)-N^3-(3-chlorophenyl)-1H-pyrazolo[3,4-d]pyrimidine-3,4-diamine] | 21.86% | 
35 | Nc1ncnc2c1c(Cc1cc(F)cc(F)c1)nn2CC1CCNCC1 [MLC468, 3-(3,5-difluorobenzyl)-1-(piperidin-4-ylmethyl)-1H-pyrazolo[3,4-d]pyrimidin-4-amine] | 94.97% | 
36 | Nc1ncnc2c1c(Cc1c[nH]c3ccccc13)nn2CC1(C(F)(F)F)CC1 [WXT-2, 3-((1H-indol-3-yl)methyl)-1-((1-(trifluoromethyl)cyclopropyl)methyl)-1H-pyrazolo[3,4-d]pyrimidin-4-amine] | 96.00% | IC50 (TgCDPK1): 38.1 nM; EC50 ([1]; Toxoplasma gondii, 72 h, read-out: Parasite Growth EC50): 206 nM; half-life [2]: 4.7 min; IC50 (Src): > 10000 nM
